The values below come from ChEMBL document CHEMBL1139643, “Cell differentiation inducers derived from thalidomide” (2005).

Holding throughout (format): functional
Test [1] deals with HL-60. As to the kind of experiment: Percent cell proliferation of human leukemia cell line HL-60 at 1*E-5 M.
Test [2] relates to HL-60. In words: NBT positivity against human leukemia cell line HL-60 at 1*E-5 M.
Test [3] deals with HL-60. As to the kind of experiment: Percent cell proliferation of human leukemia cell line HL-60 at 1*E-6 M.
Test [4] concerns HL-60. As to the kind of experiment: Percent cell proliferation of human leukemia cell line HL-60 at 3*E-6 M.
The test system of test [5] is HL-60. In words: Percent cell proliferation of human leukemia cell line HL-60 at 5*E-6 M.
Test [6] concerns HL-60. In words: NBT positivity against human leukemia cell line HL-60 at 1*E-6 M.
For test [7], the system named is HL-60. In words: NBT positivity against human leukemia cell line HL-60 at 3*E-6 M.
In test [8] the test system is HL-60. In words: NBT positivity against human leukemia cell line HL-60 at 5*E-6 M.
Test [9] has as its system HL-60. In words: Percent cell proliferation of human leukemia cell line HL-60 at 1*E-8 M.
In test [10] the test system is HL-60. In words: NBT positivity against human leukemia cell line HL-60 at 1*E-8 M.
The test system of test [11] is HL-60. As to the kind of experiment: NBT positivity against human leukemia cell line HL-60 at 2*E-9 M.
For test [12], the system named is HL-60. In words: Percent cell proliferation of human leukemia cell line HL-60 at 2*E-9 M.

Consider `CC1(N2C(=O)c3ccc(N)cc3C2=O)CCC(=O)NC1=O` (stereo not drawn), for which the Cell proliferation in the test with HL-60 [1] came to 103%. For the same molecule, in the test with HL-60 [2], the NBT positivity amounted to 1%.
On the same counts, the results for `CC1(N2C(=O)c3cccc(N)c3C2=O)CCC(=O)NC1=O` (stereo not drawn) are 92% and 2%.
In the case of `CC(C)c1cccc(C(C)C)c1N1C(=O)c2ccc(O)cc2C1=O`, the Cell proliferation in the test on HL-60 [3] came out at 94%; in the test on HL-60 [4], 43%; with HL-60 [5], 10%. Also, the NBT positivity in the test with HL-60 [6] came out at 3%; in the test with HL-60 [7], 8%; in the test with HL-60 [8], 55%.
In the case of `O=C1CCC(N2C(=O)c3ccccc3C2=O)C(=O)N1O` (stereo not drawn), in the test on HL-60 [1], the Cell proliferation was 100%. In the test on HL-60 [2], this molecule yielded an NBT positivity of 1%.
On the same counts, the results for `CC(C)c1cccc(C(C)C)c1N1C(=O)c2cccc(O)c2C1=O` are 76% and 3%.
`CC(C)c1cccc(C(C)C)c1N1C(=O)c2ccccc2C1=O`: the Cell proliferation in the test with HL-60 [1] came to 24%. The same molecule registered an NBT positivity in the test with HL-60 [2] of 9%.
With `CC(C)c1cccc(C(C)C)c1N1C(=O)c2cccc(N)c2C1=O`, the Cell proliferation is on record as 25% in the test on HL-60 [1] and 73% with HL-60 [4]. Moreover, the NBT positivity in the test with HL-60 [2] was determined as 16%; in the test on HL-60 [7], 2%.
Molecule `CC(C)c1cccc(C(C)C)c1N1C(=O)c2ccc(N)cc2C1=O` gave a Cell proliferation in the test with HL-60 [1] of 53%. In the test on HL-60 [2], the NBT positivity is on record as 5%.
`C=C1/C(=C\C=C2/CCC[C@]3(C)[C@@H]([C@H](C)CCCC(C)(C)O)CC[C@@H]23)C[C@@H](O)C[C@@H]1O` [CALCITRIOL]: the Cell proliferation in the test on HL-60 [9] turned out to be 55%. Moreover, the NBT positivity with HL-60 [10] worked out at 39%.
`O=C1CCC(N2C(=O)c3ccccc3C2=O)C(=O)N1` (stereo not drawn) [THALIDOMIDE] showed a Cell proliferation with HL-60 [1] of 101%. Also, in the test on HL-60 [2], the NBT positivity was found to be 1%.
On to `CC1=C(/C=C/C(C)=C/C=C/C(C)=C/C(=O)O)C(C)(C)CCC1` [TRETINOIN], for which the NBT positivity in the test on HL-60 [11] turned out to be 52%. The Cell proliferation in the test on HL-60 [12] is reported as 45%.
